In the assay the test system is Jurkat, thapsigargin-induced death, ATPlite luminescence, 24 h. Kind of assay: protection from thapsigargin-induced Jurkat death, Jurkat T-cell leukemia, ATP content luminescence (AID 1354). As to conditions: at 25 µM, stronger effect = higher value.
Where [1] appears, read: measured here: survival at thapsigargin 10 uM.
Setting [2] is: measured here: survival at thapsigargin 15 uM.

Calls of active or inactive are those of the source.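 The calls were made as follows: active = survival over 30 points above compound-free thapsigargin wells at any thapsigargin dose; inactive = the rest.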

With `COc1ccc(C2CC(=O)C3=C(C2)Nc2ccccc2NC3c2cccc(Oc3ccccc3)c2)cc1OC` (stereo not drawn), the survival (thapsigargin 7.5 uM) is 51% (inactive). In addition, the survival under setting [1] is 37%. This compound showed a survival under setting [2] of 7%.

As to `CC1(C)CC(=O)C2=C(C1)Nc1ccccc1NC2c1ccc(-c2ccccc2)cc1` (stereo not drawn), the survival (thapsigargin 7.5 uM) was 14% (inactive). Besides, the survival under setting [1] was 3%. This compound also had a survival under setting [2] of 0%.

As for `CCOc1cccc(C2Nc3ccccc3NC3=C2C(=O)CC(c2ccc(OC)cc2)C3)c1` (stereo not drawn), the survival (thapsigargin 7.5 uM) was 46% (inactive). The same compound had a survival under setting [1] of 32%. Also, under setting [2], the survival stood at 1%.

As for `COc1ccc(C2CC(=O)C3=C(C2)Nc2ccccc2NC3c2cccc(C(F)(F)F)c2)cc1OC` (stereo not drawn), the survival (thapsigargin 7.5 uM) was 42% (inactive). Further, under setting [1], the survival amounted to 19%. In addition, the survival under setting [2] was determined as 1%.

On to `CSc1ccc(C2Nc3ccccc3NC3=C2C(=O)CC(c2ccccc2)C3)cc1` (stereo not drawn), for which the survival (thapsigargin 7.5 uM) was 44% (inactive). The compound further came in with a survival under setting [1] of 23%. For the same compound, under setting [2], the survival was 4%.

In the case of `CCCOc1ccc(C2Nc3ccccc3NC3=C2C(=O)CC(c2ccc(OC)c(OC)c2)C3)cc1` (stereo not drawn), the survival (thapsigargin 7.5 uM) was 44% (inactive). Under setting [1], this compound came in with a survival of 17%. Under setting [2], this compound displayed a survival of 1%.

For the compound `COc1ccc(C2CC(=O)C3=C(C2)Nc2ccccc2NC3c2ccccc2C(F)(F)F)cc1OC` (stereo not drawn), the survival (thapsigargin 7.5 uM) is 44% (inactive). This compound gave a survival under setting [1] of 32%. Under setting [2], the survival came to 2%.

For `CCOc1cc(C2Nc3ccccc3NC3=C2C(=O)CC(c2ccc(OC)cc2)C3)cc(Cl)c1O` (stereo not drawn), the survival (thapsigargin 7.5 uM) is 55% (inactive). Moreover, under setting [1], the survival was 35%. The same compound registered a survival under setting [2] of 2%.

`COc1ccc(C2CC(=O)C3=C(C2)Nc2ccccc2NC3c2cccc(Br)c2)cc1OC` (stereo not drawn): the survival (thapsigargin 7.5 uM) was 34% (inactive). This compound displayed a survival under setting [1] of 18%. Under setting [2], this compound registered a survival of 1%.

Regarding `O=C1CC(c2ccccc2)CC2=C1C(c1c(F)cccc1Cl)Nc1ccccc1N2` (stereo not drawn), the survival (thapsigargin 7.5 uM) is 39% (inactive). Under setting [1], this compound returned a survival of 23%. The same compound showed a survival under setting [2] of 1%.

Take `COc1ccc(C2CC(=O)C3=C(C2)Nc2ccccc2NC3c2cc(C)ccc2C)cc1` (stereo not drawn): the survival (thapsigargin 7.5 uM) was 54% (inactive). The same compound showed a survival under setting [1] of 37%. In addition, the survival under setting [2] turned out to be 2%.
